# Data as given in US20090142363A1, “CYTOTOXIC T-CELL EPITOPE PEPTIDE AND USE THEREOF” (priority 2005, published 2009).
# No end group written: not given here.
# Experiments:
# [1] = tested on: CTLs with target cells expressing HLA-A*24 molecules; assay: Confirmation of CTLs by ELISPOT assay (IFNγ spots); assay type: cell-based, human; settings: FIG. 4
# Protocol: A commercially available ELISPOT assay kit (for example, MABTECH Co.) may be purchased, and the assay can be performed according to the manufacturer's protocol. Alternatively, the assay may also be carried out by the following procedure. 96-well MultiScreen-HA plates (Millipore Co.) were coated with an anti-IFNγ monoclonal antibody (R&D Systems Co.) at 4° C. for overnight. Each well was washed with PBS. Target cells were plated into each well. Any cells expressing HLA-A*24 molecules on their surface can be used as the target cells. For example, T2-A24, a cultured cell which a gene of HLA-A*24 molecule is introduced into a 174CEM.T2 cell, can be used. Alternatively, EBV-infected LCLs expressing HLA-A*24 molecules on their surface can be used as the target cells. These target cells were added into each well with a candidate peptide for adenovirus-specific CTL epitopes or a negative control (HIV) peptide. The mixtures were allowed to stand at room temperature for 30 minutes. Then, an adequate number of CTLs were added, and the mixtures were cultured in a 5% CO2 incubator at 37° C. for 20 hours. CTLs that responded to the candidate epitope peptide secreted IFNγ during this culture period, and the IFNγ bound to the anti-IFNγ monoclonal antibody that was coated on the plates. After culturing was completed, the plates were washed with PBS containing 0.05% Tween-20. Then, an anti-IFNγ polyclonal antibody (Genzyme Co.) and peroxidase-labeled goat anti-rabbit IgG serum were allowed to react in this order at room temperature for 90 minutes each. Furthermore, 3-amino-9-ethylcarbasole (Sigma), a peroxidase substrate, and 0.1M sodium acetate buffer (pH 5.0) containing 0.015% H2O2 was added to each well, and the plates were incubated at room temperature for 40 minutes to visualize the IFNγ spots. The spots were counted under a stereomicroscope.
# The spots were counted under a stereomicroscope, and were plotted on a graph.
# [2] = tested on: PBMCs of healthy adults reactive to the anti-HLA-A*24 antibody; assay: Induction of specific CTLs from PBMCs, method for quantifying cells producing intracellular IFNγ; assay type: cell-based, human; design: key to specific CTL induction, cytokine quantification method: ∘: “open circle” indicates that the use of a candidate peptide enabled specific CTLs to be induced; x: “cross” indicates that specific CTLs was unable to be induced; settings: for specific CTL induction confirmed by CD8-positive, IFNγ-positive cells versus HIV peptide: donor ID*24-8, FIG. 3a-d; for peptide-specific cytokine production in PBMCs derived from ten people with HLA-A*24 molecule: summary of Table 2
# Protocol: This induction method induces CTLs by adding peptides to culture media of PBMCs. Peptides are presented on antigen-presenting cells present among PBMCs, such as dendritic cells, B cells, macrophages, and certain types of T cells, whereby CTL precursor cells in PBMCs are stimulated to proliferate.
# Peripheral blood collected from healthy adults that were reactive to the anti-HLA-A*24 antibody was centrifuged at 3,000 rpm for 5 to 10 minutes. The resulting supernatant plasma was collected. The non-plasma portion was processed according to a conventional method to isolate PBMCs. The characteristic of the present method is the addition of several % of plasma to an induction medium. In the present invention, a favorable result was obtained by adding 5% plasma. The medium is prepared by adding appropriate additives and antibiotics to a medium commonly used for cell culture. The CTL induction medium used in the present invention was RPMI1640 Hepes modify (Sigam) supplemented with 2-mercapotethanol, L-glutamine, and the antibiotics streptomycin and penicillin. In addition to these, insulin, transferrin, selenious acid, pyruvic acid, human serum albumin, solution of non-essential amino acids, and the like may be added. 1 to 3×10^6 PBMCs were suspended in 1 to 2.5 ml of the culture medium. A candidate peptide was added to the cells at a concentration of 1 to 20 μg/ml. The concentration of peptide can be altered depending on the solubility of the peptide. The peptide was added at 10 μg/ml. After two days, IL-2 was added at a final concentration of 20 to 100 U/ml. Round-bottomed culture dishes that allow the exchange of carbon dioxide gas are preferably used to co-culture PBMCs with peptides. In the context of the present invention, 14-ml round-bottomed polypropylene tubes (Becton Dikinson) or 96-well U-bottomed cell culture microtest plates (Becton Dikinson) were used. The adenovirus-specific CTLs were confirmed after about two and four weeks of culture. The cells were stimulated again with the peptide at 10 μg/ml after about two weeks of culture. When the induction of adenovirus-specific CTLs was confirmed, the cells were further stimulated with peptide-pulsed antigen-presenting cells to establish CTL lines.
# Approximately 1/10 to all of the cells induced by the above-described method were transferred into 96-well U-bottomed cell culture microtest plates, and the peptide used for the induction was added thereto at a final concentration of 0.01 to 0.05 μg/ml. Then, an intracellular protein transport inhibitor (for example, brefeldin A, monensin, or such) was added, and the cells were cultured in a 5% CO2 incubator at 37° C. for 5 to 16 hours. After culture, the cells were washed, and phycoerythrin (PE)-labeled MHC-tetramer reagent and phycoerythrin-Cy5(PC5)-labeled CD8 antibody (Beckman Coulter) were added thereto. The resulting mixture was allowed to stand at room temperature for 15 to 30 minutes. After washing, the cells were fixed with 4% formaldehyde at 4° C. for 15 minutes and washed with an excess amount of washing solution. After membrane permeabilization treatment with 0.1% saponin, an FITC-labeled anti-IFNγ antibody (Beckman Coulter) was added, and reacted at room temperature for 15 to 30 minutes. After washing, the proportion of IFNγ-positive cells in T cells or MHC-tetramer reagent-positive cells was determined using a flow cytometer.
# PBMCs derived from ten people with HLA-A*24 molecule were tested using 10 types of peptides. […] Thus, these six types of candidate epitope peptides serve as adenovirus-specific CTL epitope peptides. Since the adenovirus-specific CTL epitope peptides have the HLA-A*24-binding motif, they are likely to be HLA-A*2402-restricted epitope peptides, which are carried by 60% or more of the Japanese people. In the context of the results described above, MHC-tetramer reagents were synthesized using five types of epitope peptides, and their utility was tested.
Sequence,IFNγ spots in ELISPOT assay compared with the negative control (HIV) peptide [1],"specific CTL induction, cytokine quantification method ([2]; donor ID *24-1)","specific CTL induction, cytokine quantification method ([2]; donor ID *24-2)","specific CTL induction, cytokine quantification method ([2]; donor ID *24-3)","specific CTL induction, cytokine quantification method ([2]; donor ID *24-5)","specific CTL induction, cytokine quantification method ([2]; donor ID *24-8)","specific CTL induction, cytokine quantification method ([2]; donor ID *24-10)","specific CTL induction, cytokine quantification method ([2]; donor ID *24-11)","specific CTL induction, cytokine quantification method ([2]; donor ID *24-12)","specific CTL induction, cytokine quantification method ([2]; donor ID *24-13)","specific CTL induction, cytokine quantification method ([2]; donor ID *24-14)","specific CTL induction confirmed by CD8-positive, IFNγ-positive cells versus HIV peptide [2]",peptide-specific cytokine production in PBMCs derived from ten people with HLA-A*24 molecule [2]
TYFNLGNKF [TYF],IFNγ spots were observed,x,∘,x,x,∘,x,x,x,x,x,induced specific CTLs,induce cytokine production in a peptide-specific manner
VYSGSIPYL,IFNγ spots were observed,x,∘,x,x,∘,x,x,x,x,x,induced specific CTLs,induce cytokine production in a peptide-specific manner
